Where two headings read alike, the source gives them in different places.
Experiments:
LNCaP tumor xenografts [1] = test system: LNCaP tumor xenografts; parameters: method as in PMID 30136051; settings: 24 h after injection, cited from earlier work
[2] = patients; cited from earlier work
[3] = parameters: method as in PMID 34531260; settings: patients; cited from earlier work
PSMA = biological target: T1, PSMA (Homo sapiens, UniProt Q04609); experiment: Competitive binding (IC50) on LNCaP cells against ([125I]IBA)KuE
T1 construct: endogenous in cells; host or cells: LNCaP cells
Method: (§1) Competitive binding studies were determined on LNCaP cells (1.5 × 10^5 cells in 0.25 mL/well) after incubation at 4°C for 1 h, using (((S)-1-carboxy-5-(4-([^125I]iodo)benzamido)pentyl)carbamoyl)-L-glutamic acid ([^125I]IBA)KuE; 0.2 nM/well) as the reference radioligand (n = 3). Internalization studies of the radiolabeled ligands (1.0 nM/well) were performed on LNCaP cells (1.25 × 10^5 cells in 0.25 mL/well) at 37°C for 1 h and accompanied by ([^125I]IBA)KuE (0.2 nM/well) as a reference. Data were corrected for nonspecific binding and normalized to the specific internalization observed for the reference (n = 3), as previously published ([8]).

PSMA (LNCaP cells) = biological target: T2, PSMA (LNCaP cells) (Homo sapiens, UniProt Q04609); experiment: PSMA-mediated internalization into LNCaP cells; assay type: cell-based; settings: 1 h, 37°C, 1.0 nM/well, n = 3
T2 construct: endogenous in cells; host or cells: LNCaP cells
Method: as §1

[4] = biological target: T3, human serum albumin (HSA) (Homo sapiens, UniProt P02768); experiment: Binding to HSA by albumin-mediated size-exclusion chromatography (AMSEC), apparent molecular weight; assay type: in vitro ADME; settings: HSA buffer at physiologic concentration as mobile phase, room temperature, window 2.1-70.2 kDa
T3 construct: purchased Biowest
Method: Binding of ^177Lu-labeled ligands to HSA was assessed by albumin-mediated size-exclusion chromatography (AMSEC), a novel method that has recently been developed by our group to determine the apparent molecular weight (AMW) of a compound in the presence of HSA. A dedicated and detailed description of the AMSEC method will be published elsewhere to cover the context and the development process of this method in its entirety. Briefly, a gel filtration size-exclusion column (Superdex 75 Increase 10/300 GL; fractionation range, 70–3 kDa; GE Healthcare) was calibrated as recommended by the manufacturer using a commercially available set of proteins (Gel Filtration LMW Calibration Kit; GE Healthcare). AMSEC experiments were performed by injection of the various radioligands using an HSA buffer at physiologic concentration (Biowest) as the mobile phase at room temperature. Depending on the strength of the HSA/ligand interaction during the chromatographic procedure, an injected radioligand (1.0 MBq, 10–20 GBq/μmol) can show a reduced retention time that correlates to AMWs higher than the actual, physical, molecular weight (the latter being for all investigated ligands < 2 kDa, and thus below the column fractionation range). The stronger this interaction, the longer the mean time the ligand is bound to HSA during the chromatographic process and the faster the ligand is eluted from the column. By means of calibration, the retention time can be translated into a ligand-specific AMW (expressed in kDa) as a parameter allowing quantification of the extent of HSA binding. The detection window ranges between 2.1 kDa (cutoff value, determined by [^18F]fluoride; no HSA interaction) and 70.2 kDa (experimental molecular weight of HSA; maximum HSA interaction). [^177Lu]Lu-rhPSMA-7.3 served as an internal standard during AMSEC studies (30.4 ± 0.5 kDa; n = 10).

[5] = Lipophilicity, n-octanol/phosphate-buffered saline distribution (log D7.4); assay type: physicochemical; settings: pH 7.4, n = 6
Method: Approximately 1 MBq of the ^177Lu-labeled PSMA ligand was dissolved in 1 mL of a 1:1 mixture (v/v) of phosphate-buffered saline (pH 7.4) and n-octanol (n = 6). After vigorous mixing of the suspension for 3 min, the vial was centrifuged at 15,000g for 3 min, and 100-μL aliquots of both layers were measured in a γ-counter. Finally, the ratio of the radioactivity detected in the n-octanol sample and the phosphate-buffered saline buffer was calculated and expressed as distribution ratio log D7.4.

LNCaP tumor xenografts [6] = experiment: Biodistribution and small-animal SPECT/CT in LNCaP tumor-bearing mice, 24 h after injection; assay type: in vivo, male CB-17 SCID mice
Method: All animal experiments were conducted in accordance with general animal welfare regulations in Germany (German animal protection act, as amended on May 18, 2018, article 141 G, version March 29, 2017, I 626, approval 55.2-1-54-2532-71-13) and the institutional guidelines for the care and use of animals. LNCaP tumor xenografts were established in 6- to 8-wk-old male CB-17 SCID mice as described previously ([8]).
The ^177Lu-labeled PSMA ligands (2–5 MBq; 0.1 nmol) were injected under isoflurane anesthesia into the tail vein of mice, which were euthanized 24 h after injection (n = 4–5). Selected organs were removed, weighed, and measured in a γ-counter. All rhPSMA ligands were evaluated during the same period (first quarter of 2020), whereas ^177Lu-labeled PSMA-617 and PSMA I&T ([17]) were assessed in 2016, using the identical cell line, mouse model, and experimental procedure.
Static images of ^177Lu-labeled ligands in euthanized mice were recorded 24 h after injection directly after blood collection, with an acquisition time of 45 min using a high-energy, general-purpose rat-and-mouse collimator and a stepwise multiplanar bed movement. For imaging studies, a VECTor4 small-animal SPECT/PET/optical imaging/CT device from MILabs was applied. Data were reconstructed using MILabs.Rec software (version 10.02) and PMOD software (version 4.0; PMOD Technologies LLC). After imaging, the mice underwent biodistribution studies.

[7] = parameters: method as in earlier work; settings: patients; cited from earlier work
[8] = LNCaP tumor-bearing SCID mice, identical conditions
[9] = LNCaP tumor-bearing mice, from previously published data
[10] = 24 h after injection, LNCaP tumor-bearing SCID mice, mean ± SD, n = 4-5
[11] = 24 h after injection, LNCaP tumor-bearing mice
[12] = male, CB-17 SCID, mouse, in vivo, 24 h

T3 sequence (P02768 25-609): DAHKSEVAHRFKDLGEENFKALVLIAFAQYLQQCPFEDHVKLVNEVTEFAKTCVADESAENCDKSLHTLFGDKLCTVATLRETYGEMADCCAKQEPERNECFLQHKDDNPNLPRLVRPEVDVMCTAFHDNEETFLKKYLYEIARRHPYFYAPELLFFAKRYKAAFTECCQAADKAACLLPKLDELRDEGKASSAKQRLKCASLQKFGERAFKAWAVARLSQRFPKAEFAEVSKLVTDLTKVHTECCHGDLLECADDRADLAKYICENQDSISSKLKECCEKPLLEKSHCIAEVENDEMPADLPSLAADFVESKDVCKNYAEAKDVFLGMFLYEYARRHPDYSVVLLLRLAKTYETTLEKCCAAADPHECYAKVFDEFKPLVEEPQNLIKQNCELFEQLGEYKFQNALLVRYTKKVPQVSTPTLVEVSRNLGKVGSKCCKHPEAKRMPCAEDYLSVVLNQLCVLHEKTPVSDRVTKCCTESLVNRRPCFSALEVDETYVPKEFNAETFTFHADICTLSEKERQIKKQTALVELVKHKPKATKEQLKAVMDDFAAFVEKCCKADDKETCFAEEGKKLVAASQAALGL
T2 sequence (Q04609 whole entry): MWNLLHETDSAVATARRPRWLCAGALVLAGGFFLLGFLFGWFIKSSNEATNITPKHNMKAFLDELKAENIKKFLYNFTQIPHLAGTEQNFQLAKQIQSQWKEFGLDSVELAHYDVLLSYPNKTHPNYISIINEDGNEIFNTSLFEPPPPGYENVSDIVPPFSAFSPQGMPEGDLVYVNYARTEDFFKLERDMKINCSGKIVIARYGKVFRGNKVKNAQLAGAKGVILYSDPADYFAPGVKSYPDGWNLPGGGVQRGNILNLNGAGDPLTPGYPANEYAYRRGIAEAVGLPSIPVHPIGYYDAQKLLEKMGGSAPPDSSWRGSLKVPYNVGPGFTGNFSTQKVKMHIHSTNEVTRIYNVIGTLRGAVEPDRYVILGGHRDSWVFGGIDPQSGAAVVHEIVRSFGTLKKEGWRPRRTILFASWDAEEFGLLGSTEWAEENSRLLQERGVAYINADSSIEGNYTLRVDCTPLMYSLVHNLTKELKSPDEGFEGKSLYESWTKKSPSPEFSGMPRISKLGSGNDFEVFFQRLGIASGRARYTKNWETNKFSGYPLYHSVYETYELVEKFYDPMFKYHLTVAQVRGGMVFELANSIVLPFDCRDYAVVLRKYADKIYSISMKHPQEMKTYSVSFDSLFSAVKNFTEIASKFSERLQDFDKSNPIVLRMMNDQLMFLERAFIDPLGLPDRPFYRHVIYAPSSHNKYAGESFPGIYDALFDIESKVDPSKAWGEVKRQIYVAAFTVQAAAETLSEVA
T1 sequence (Q04609 whole entry): as above

Structure (SMILES): O=C([O-])CC[C@H](NC(=O)N[C@@H](CCCCNC(=O)CCCCCCC(=O)NCCCC[C@@H](NC(=O)[C@@H](Cc1ccccc1)NC(=O)[C@@H](Cc1ccc(O)c(I)c1)NC(=O)CC[C@H](C(=O)[O-])N1CCN(CC(=O)[O-])CCN(CC(=O)[O-])CCN(CC(=O)[O-])CC1)C(=O)[O-])C(=O)[O-])C(=O)[O-].[177Lu+3].[H+].[H+].[H+].[H+].[H+] [[^177Lu]Lu-PSMA I&T]
- kidney uptake (LNCaP tumor xenografts [1]; [8]): 34.7 ± 17.2 %ID/g
- tumor uptake (LNCaP tumor xenografts [1]; [8]): 4.1 ± 1.1 %ID/g
- tumor-to-blood ratio (LNCaP tumor xenografts [1]; [9]): 408
- tumor-to-kidney ratio (LNCaP tumor xenografts [1]; [9]): 0.2
- absorbed dose to the kidney [2]: 0.7 ± 0.2 Gy/GBq
- effective dose (tumor) [3]: 2.6 ± 2.4 mGy/MBq
- IC50 (PSMA; LNCaP cells, 1 h, 4°C, ([125I]IBA)KuE 0.2 nM/well as reference radioligand, n = 3, read-out: PSMA binding affinity (half-maximal inhibitory concentration)): 4.2 ± 0.8 nM
- PSMA-mediated internalization as percentage of reference ligand ([125I]IBA)KuE (PSMA (LNCaP cells)): 145% ± 14%
- apparent molecular weight (AMW) [4]: 5.3 kDa

Structure (SMILES): CC(C)(C)[Si](F)(c1ccc(C(=O)NC[C@@H](NC(=O)CN2CCN(CC(=O)[O-])CCN(CC(=O)[O-])CCN(CC(=O)[O-])CC2)C(=O)N[C@H](CCCCNC(=O)CCC(=O)NCCC[C@@H](NC(=O)CC[C@H](NC(=O)N[C@@H](CCC(=O)O)C(=O)O)C(=O)O)C(=O)O)C(=O)O)cc1)C(C)(C)C.[177Lu+3] [[^177Lu]Lu-rhPSMA-10.1]
- log D7.4 [5]: −3.8
- apparent molecular weight (AMW) [4]: 25.1 kDa
- kidney uptake as percentage of that of [177Lu]Lu-rhPSMA-7.3 (LNCaP tumor xenografts [6]; 24 h after injection): 20%
- tumor-to-blood ratio, times higher than for [177Lu]Lu-PSMA-617 (LNCaP tumor xenografts [6]; 24 h after injection): 8 times
- tumor-to-blood ratio, times higher than for [177Lu]Lu-rhPSMA-7.3 (LNCaP tumor xenografts [6]; 24 h after injection): 3 times
- kidney uptake (LNCaP tumor xenografts [6]; [10]): 2.0 ± 0.8 %ID/g
- tumor uptake (LNCaP tumor xenografts [6]; [10]): 9.8 ± 0.3 %ID/g
- tumor-to-blood ratio (LNCaP tumor xenografts [6]; [11]): 11,498
- tumor-to-kidney ratio (LNCaP tumor xenografts [6]; [11]): 5.7
- tracer uptake in tumor of the imaged mouse (LNCaP tumor xenografts [6]; single mouse of SPECT/CT image, 24 h after injection, from subsequent biodistribution): 9.4 %ID/g

Structure (SMILES): O=C(O)CC[C@H](NC(=O)N[C@@H](CCCCNC(=O)[C@H](Cc1ccc2ccccc2c1)NC(=O)[C@H]1CC[C@H](CNC(=O)CN2CCN(CC(=O)O)CCN(CC(=O)O)CCN(CC(=O)O)CC2)CC1)C(=O)O)C(=O)O [[^177Lu]Lu-PSMA-617, metal not drawn]
- IC50 (PSMA): 3.3 ± 0.2 nM
- PSMA-mediated internalization as percentage of reference ligand ([125I]IBA)KuE (PSMA (LNCaP cells)): 203% ± 10%
- apparent molecular weight (AMW) [4]: 13.7 kDa
- tumor-to-kidney ratio (LNCaP tumor xenografts [6]; [11]): 5.9
- kidney uptake (LNCaP tumor xenografts [6]; [12]): 1.4 ± 0.4 %ID/g
- tumor uptake (LNCaP tumor xenografts [6]; [12]): 7.5 ± 0.9 %ID/g
- tumor-to-blood ratio (LNCaP tumor xenografts [6]; [12]): 1,424

Structure (SMILES): CC(C)(C)[Si]([18F])(c1ccc(C(=O)NC[C@@H](NC(=O)CC[C@@H](C(=O)O)N2CCN(CC(=O)[O-])CCN(CC(=O)[O-])CCN(CC(=O)[O-])CC2)C(=O)N[C@H](CCCCNC(=O)CCC(=O)NCCC[C@@H](NC(=O)CC[C@H](NC(=O)N[C@@H](CCC(=O)O)C(=O)O)C(=O)O)C(=O)O)C(=O)O)cc1)C(C)(C)C.[Ga+3] [[^18F]Ga-rhPSMA-7.3]
- fold higher tumor uptake than diastereomeric mixture [18F]Ga-rhPSMA-7 [7]: 1.6 fold
- fold lower excretion into the bladder than diastereomeric mixture [18F]Ga-rhPSMA-7 [7]: 5 fold
- fold lower kidney uptake than diastereomeric mixture [18F]Ga-rhPSMA-7 [7]: 1.6 fold
